Literature values, collected in patent publication US20040204467A1, “Use of 5HT3-receptor-antagonists” (priority 1998, published 2004).

What was measured:
[1] = test system: patients with CFS; conditions: after an acute application on patients with CFS
[2] = test system: CFS patients; conditions: daily dose of 20 mg; also in patients with accompanying symptoms of depression

Row | SMILES | rise of prolactin in the serum [1] | result of treatment of CFS [2]
1 | CCN[C@@H](C)Cc1cccc(C(F)(F)F)c1 [D-Feufluoroamin] | significantly increased rise of prolactin | –
2 | CNCCC(Oc1ccc(C(F)(F)F)cc1)c1ccccc1 (centres unmarked) [fluoxetin] | – | negative in result
